From patent US9695330B2, “Liquid composition, pigment dispersion liquid, and aqueous ink composition for ink jet recording” (Seiko Epson Corporation, priority 2015, dated 2017)

Assay: Distribution coefficient of water-octanol (logP), OECD Test Guideline 107
Type: physicochemical
Details: not given

Row | logP | Compound | logP (distribution coefficient of water-octanol)
1 | 2.53 | CCCCC(CC)COCC(O)CO (stereo not shown) [3-(2-ethylhexyloxy)-1,2-propanediol] | 
2 |  | CCCC(=O)OCC(O)CO (stereo not shown) [butyric acid 2,3-dihydroxypropyl] | -0.21
3 |  | CCCCCC(=O)OCC(O)CO (stereo not shown) [hexanoic acid 2,3-dihydroxypropyl] | 0.85
4 |  | C=C(C)C(=O)OCC(O)CO (stereo not shown) [methacrylic acid 2,3-dihydroxypropyl] | −0.12
5 |  | CCC(=O)OCC(O)CO (stereo not shown) [propionic acid 2,3-dihydroxypropyl] | −0.75

Same assay, conditions: octanol/water

Row | logP | Compound
6 | 0.75 | C#CCOCC(O)CO (stereo not shown) [3-(2-propynyloxy)-1,2-propanediol]
7 | -0.46 | C=CCOCC(O)CO (stereo not shown) [3-allyloxy-1,2-propanediol]
8 | 1 | OCC(O)COC1CCCCC1 (stereo not shown) [3-cyclohexyloxy-1,2-propanediol]
9 | -0.43 | CCOCC(O)CO (stereo not shown) [3-ethoxy-1,2-propanediol]
10 | 0.36 | CCCCCCOCC(O)CO (stereo not shown) [3-hexyloxy-1,2-propanediol]
11 | 0.94 | CC(C)CCOCC(O)CO (stereo not shown) [3-isopentyloxy-1,2-propanediol]
12 | 2.6 | CC1CCC(C(C)C)C(OCC(O)CO)C1 (stereo not shown) [3-menthyloxy-1,2-propanediol]
13 | -0.62 | COCC(O)CO (stereo not shown) [3-methoxy-1,2-propanediol]
14 | 0.9 | CCCCCOCC(O)CO (stereo not shown) [3-pentyloxy-1,2-propanediol]
15 | -0.24 | CC(=O)OCC(COC(C)=O)OC(C)=O [glycerol triacetate]

Row | Compound | logP
16 | CCCCOCC(O)CO (stereo not shown) [3-butoxy-1,2-propanediol] | 0.59
